From ChEMBL document CHEMBL1201862, “PubChem BioAssay data set” (2004)
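Five compound concentrations were applied to cells in 96-well plates for 48 hours; endpoints were derived by simple linear interpolation of the resulting dose-response curve. GI50: concentration for 50% inhibition of growth.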 The source made the active and inactive calls. Rule as the data show it: active = GI50 up to about 1.1 µM and inactive = higher.

Legend:
Assay in all cases: DTP human tumour cell line panel, 48 h
NCI-H23 = test system: NCI-H23
HOP-62 = test system: HOP-62
UACC-257 = test system: UACC-257
SK-MEL-5 = test system: SK-MEL-5
MDA-MB-435 = test system: MDA-MB-435
786-0 = test system: 786-0
HT-29 = test system: HT-29
MDA-N = test system: MDA-N
SF-268 = test system: SF-268
LOX IMVI = test system: LOX IMVI
HCC 2998 = test system: HCC 2998
SF-539 = test system: SF-539
HL-60 = test system: HL-60
SK-MEL-2 = test system: SK-MEL-2
KM12 = test system: KM12
RPMI-8226 = test system: RPMI-8226
HOP-92 = test system: HOP-92
M14 = test system: M14
SK-OV-3 = test system: SK-OV-3
TK-10 = test system: TK-10

Measured: GI50

C#CCCOC1(OC)N=NC(C)(C)O1 (stereo unspecified)
inactive: NCI-H23 > 100 µM | HOP-62 > 100 µM | UACC-257 > 100 µM | SK-MEL-5 > 100 µM | MDA-MB-435 > 100 µM | 786-0 > 100 µM | HT-29 > 100 µM | MDA-N > 100 µM | SF-268 > 100 µM | LOX IMVI > 100 µM | HCC 2998 > 100 µM | SF-539 > 100 µM | HL-60 > 100 µM | SK-MEL-2 > 100 µM | KM12 > 100 µM | RPMI-8226 > 100 µM | HOP-92 > 100 µM | M14 > 100 µM

CCCCCCN1CCc2c(C)c(C#N)c3nc4ccccc4n3c21
inactive: SK-OV-3 > 100 µM | NCI-H23 45 µM | HOP-62 92.9 µM | UACC-257 16.3 µM | SK-MEL-5 11.4 µM | MDA-MB-435 17 µM | 786-0 42.9 µM | HT-29 18.5 µM | MDA-N 22.7 µM | SF-268 > 100 µM | LOX IMVI 22.2 µM | HCC 2998 49.3 µM | SF-539 > 100 µM | HL-60 11.7 µM | SK-MEL-2 22.2 µM | TK-10 > 100 µM | HOP-92 22.5 µM | M14 63.5 µM

COc1cccc(/C=C/C2=NN(c3cccc(S(=O)(=O)O)c3)C3(C2)SCC(=O)N3c2nc3ccccc3s2)c1 (stereo unspecified)
inactive: NCI-H23 86.1 µM | UACC-257 85.7 µM | SK-MEL-5 36 µM | MDA-MB-435 24.4 µM | 786-0 21 µM | HT-29 64.7 µM | MDA-N 62.7 µM | SF-268 33.3 µM | LOX IMVI 21.1 µM | HCC 2998 95.1 µM | SF-539 17.1 µM | HL-60 26.7 µM | SK-MEL-2 44.8 µM | KM12 32 µM | RPMI-8226 22.5 µM | TK-10 28.8 µM | HOP-92 94.6 µM | M14 80.9 µM

CN(C)C(=O)N1N[C@H](c2ccccc2)[C@@H]1c1ccccc1
inactive: SK-OV-3 > 100 µM | NCI-H23 > 100 µM | HOP-62 > 100 µM | UACC-257 > 100 µM | SK-MEL-5 > 100 µM | MDA-MB-435 > 100 µM | 786-0 > 100 µM | MDA-N > 100 µM | LOX IMVI > 100 µM | HCC 2998 > 100 µM | SF-539 > 100 µM | SK-MEL-2 > 100 µM | KM12 > 100 µM | RPMI-8226 > 100 µM | TK-10 > 100 µM | HOP-92 > 100 µM | M14 > 100 µM

C=C1OC(c2ccccc2NC)=NC12CCCCC2
inactive: SK-OV-3 > 100 µM | NCI-H23 > 100 µM | HOP-62 > 100 µM | UACC-257 > 100 µM | SK-MEL-5 > 100 µM | MDA-MB-435 > 100 µM | 786-0 > 100 µM | HT-29 > 100 µM | MDA-N > 100 µM | SF-268 > 100 µM | LOX IMVI > 100 µM | HCC 2998 > 100 µM | SF-539 > 100 µM | HL-60 > 100 µM | KM12 > 100 µM | TK-10 > 100 µM | HOP-92 > 100 µM | M14 > 100 µM

Cc1c(N/C=C(\C#N)C(=O)c2ccc(Cl)cc2)c(=O)n(-c2ccccc2)n1C
inactive: SK-OV-3 > 100 µM | NCI-H23 > 100 µM | UACC-257 > 100 µM | SK-MEL-5 66.7 µM | MDA-MB-435 34.9 µM | 786-0 > 100 µM | MDA-N > 100 µM | LOX IMVI > 100 µM | HCC 2998 > 100 µM | SF-539 > 100 µM | HL-60 38.7 µM | SK-MEL-2 62.1 µM | KM12 > 100 µM | RPMI-8226 34.6 µM | TK-10 32.9 µM | HOP-92 > 100 µM | M14 > 100 µM
